Columns and labels:
behavioral toxicity = assay: Toxicity (behavioral toxicity), rat (po); type: in vivo
Protocol: (§1) Tests are conducted in groups of at least 8 mice or rats to determine the intrinsic neurotoxicity (neuromuscular impairment) after administration of the test compound by the route of administration to be used in the pharmacology studies. Neurotoxicity is determined in male CF No 1 mice by the rotarod procedure. Inability of the mouse to maintain its equilibrium in 3 trials during 1 min on this rotating rod (6 rpm) is used as an indication of such impairment. In Sprague-Dawley rats, minimal motor impairment (MMI) is determined by overt evidence of ataxia, abnormal gait, and stance.

[1] = tested on: maximal electroshock (MES)-induced seizures; assay: Maximal electroshock seizure (MES) test, rat (po); type: in vivo; conditions: Rattus norvegicus
Protocol: (§2) The maximal electroconvulsive shock (MES) test is regarded as a standard screen for anticonvulsant activity in terms of inhibition of seizure spread in generalized tonic-clonic seizures.
(§3) Groups of at least 8 male albino CF No. 1 mice or male albino Sprague-Dawley rats are treated with 10 mL/kg i.p. or 4 mL/kg p.o. of the test compound solution, respectively. The electrical stimulus in the MES test is 50 mA at 60 Hz for mice and 150 mA at 60 Hz for rats, both delivered for 0.2 sec. Abolition of the hind leg tonic extensor component of the seizure is used as the endpoint.

[2] = tested on: maximal electroshock (MES)-induced seizures; assay: Maximal electroshock seizure (MES) test, mice (ip); type: in vivo; conditions: for ED50: Mus musculus
Protocol: as §2, §3

[3] = tested on: neurologic toxicity (rotorod test); assay: Neurologic toxicity, rotorod test, mice (ip); type: in vivo
Protocol: as §1

6 Hz seizures = assay: 6 Hz seizure model, mice (ip); type: in vivo; conditions: for seizure activity in the 6 Hz seizure model assay: comparable to or exceeding phenyloin and phenobarbital
[4] = read-out: MES, ED50, rat, po, Table 3
[5] = mice, ip, time (h) in brackets, Table 3, NINDS ASP
[6] = behavioral toxicity, Table b607
[7] = behavioral toxicity, Table b608
[8] = mice, ip, time (h) in brackets, (terminal ring group)
[9] = rotorod test, time of peak effect (h) in brackets, Table 2
[10] = mice, ip, 95% confidence intervals in parentheses, Table 1

CC(=O)NC(C(=O)NCc1ccc(OCc2cccc(F)c2)cc1)c1ccccn1 (racemic) [(R,S)-9, N-4-(3-Fluorobenzyloxy)benzyl 2-Acetamido-2-(pyridin-2-yl)acetamide]
Tox, TD50 (behavioral toxicity; behavioral toxicity, Table 3): >30 [4] milligrams per kilogram | ED50 [1, 4]: > 30 mg/kg | MES, ED50 [2, 5]: 28 [0.5] (20-36) milligrams per kilogram

COC[C@@H](NC(C)=O)C(=O)NCc1ccc(CCc2cccc(F)c2)cc1 [(R)-13]
Tox, TD50 (behavioral toxicity; [6]): >30 [1] milligrams per kilogram | ED50 ([1]; read-out: MES, ED50, rat, po): < 30 mg/kg

C#CCOC[C@@H](NC(C)=O)C(=O)NCc1ccc(N=C=S)cc1
melting point: 157 to 159 °C

CC(=O)NC(C(=O)NCc1ccc(C)cc1)c1ccccc1 (stereo not drawn) [D, reference compound]
ED50 ([2]; mice (ip), text b213): ~300 mg/kg

COC[C@@H](NC(C)=O)C(=O)NCc1ccccc1 [(R)—B, (2R)-2-(acetylamino)-N-benzyl-3-methoxypropanamide, reference compound]
Tox, TD50 (behavioral toxicity; time (h) in brackets, Table 2): > 500 mg/kg

CC(=O)NCC(=O)NCc1ccc(OCc2cccc(F)c2)cc1 [compound 5, N-4-(3-Fluorobenzyloxy)benzyl 2-Acetamidoacetamide]
Tox, TD50 (behavioral toxicity; behavioral toxicity, Table 3): >500 [1.0] milligrams per kilogram | ED50 [1, 4]: 31 mg/kg | Tox, TD50 ([3]; rotorod test, Table 3): >300 [0.5 and 4.0] milligrams per kilogram

COC[C@@H](NC(C)=O)C(=O)NCc1ccc(OCc2ccccc2)cc1 [(R)-20, (R)—N-4′-(Benzyloxy)benzyl 2-N-Acetamido-3-methoxypropionamide]
Tox, TD50 (behavioral toxicity; [7]): >250 [1.0] milligrams per kilogram | MES, ED50 [2, 8]: 5.8 [0.25] (4.4-7.2) milligrams per kilogram | Tox, TD50 ([3]; rotorod test, Table b608): 22 [0.25] (19- milligrams per kilogram

C=CCOCC(NC(C)=O)C(=O)NCc1ccccc1 (racemic) [(R,S)-11, reference compound]
MES, ED50 ([2]; mice, ip): >30, <100 mg/kg

COC[C@@H](NC(C)=O)C(=O)NCc1ccc(COc2cccc(F)c2)cc1 [(R)-16, (R)—N-4-((3-Fluorophenoxy)methyl)benzyl 2-Acetamido-3-methoxypropionamide]
Tox, TD50 (behavioral toxicity; [6]): >400 [0.5] milligrams per kilogram | ED50 ([1]; read-out: MES, ED50, rat, po): 19 mg/kg | MES, ED50 ([2]; mice, ip, time (h) in brackets, (X′—Y′—Z′ group)): 5.9 [0.25] milligrams per kilogram | Tox, TD50 ([3]; rotorod test, Table b607): 10 [0.25] milligrams per kilogram

C#CCOC[C@H](NC(C)=O)C(=O)NCc1ccc(N=C=S)cc1 [(S)-9, (S)—N-(4-Isothiocyanatobenzyl)-2-acetamido-3-(prop-2-ynyloxy)propanamide]
melting point: 157 to 158 °C | Tox, TD50 [3, 9]: >300 mg/kg

CC(=O)N[C@@H](C)C(=O)NCc1ccc(OCc2cccc(F)c2)cc1 [(S)-6, (S)—N-4-(3-Fluorobenzyloxy)benzyl 2-Acetamidopropionamide, reference compound]
Tox, TD50 (behavioral toxicity; behavioral toxicity, Table 3): >30 [0.25 to milligrams per kilogram | ED50 [1, 4]: > 30 mg/kg | Tox, TD50 ([3]; rotorod test, Table 3): >300 [0.5] milligrams per kilogram

C#CCOCC(NC(C)=O)C(=O)NCc1ccc(N=[N+]=[N-])cc1 (stereo not drawn) [compound 8]
seizure activity in the 6 Hz seizure model assay (6 Hz seizures): excellent seizure activity

CC(=O)NC(C)C(=O)NCc1ccccc1 (racemic) [(R,S)-4, reference compound]
MES, ED50 [2, 10]: 77 (67-89) mg/kg

C#CCOC[C@H](NC(C)=O)C(=O)NCc1ccccc1 [(S)-7, (S)—N-Benzyl-2-acetamido-3-(prop-2-ynyloxy)propanamide]
Tox, TD50 (behavioral toxicity; time (h) in brackets, Table 2): >30 mg/kg | melting point: 148.5 to 149 °C | Tox, TD50 [3, 9]: >300 mg/kg

COC[C@@H](NC(C)=O)C(=O)NCc1ccc(COCc2cccc(F)c2)cc1 [(R)-18, (R)—N-4-(((3-Fluoro)benzyloxy)methyl)benzyl 2-Acetamido-3-methoxypropionamide]
melting point: 140 to 142 °C

COC[C@@H](NC(C)=O)C(=O)NCc1ccc([N+](=O)[O-])cc1 [F, reference compound]
ED50 ([2]; mice (ip), text b213): 100 to 300 mg/kg

COC[C@H](NC(C)=O)C(=O)NCc1ccc(OCc2cccc(F)c2)cc1 [(S)-3, (S)-2-Acetamido-N-(4-(3-fluorobenzyloxy)benzyl)-3-methoxypropanamide]
Tox, TD50 ([3]; time (h) in brackets, Table 2): >300 [0.5]

C#CCOC[C@H](NC(C)=O)C(=O)NCc1ccc(N=[N+]=[N-])cc1 [(S)-8, (S)—N-(4-Azidobenzyl)-2-acetamido-3-(prop-2-ynyloxy)propanamide]
Tox, TD50 (behavioral toxicity; time (h) in brackets, Table 2): >30 mg/kg | melting point: 135 to 136.5 °C | Tox, TD50 [3, 9]: >300 mg/kg

COC[C@H](NC(C)=O)C(=O)NCc1ccc(OCc2cccc(F)c2)cc1 [(S)-10, (S)-2-Acetamido-N-(4-(3-fluorobenzyloxy)benzyl)-3-methoxypropanamide]
MES, ED50 [2, 5]: >300 milligrams per kilogram | Tox, TD50 ([3]; rotorod test, Table 3): >300 milligrams per kilogram

CC(=O)NC(C(=O)NCc1ccccc1)c1ccco1 (racemic) [(R,S)-5, reference compound]
MES, ED50 [2, 10]: 10 (9.1-12) mg/kg

COC[C@@H](NC(C)=O)C(=O)NCc1ccc(C2(C(F)(F)F)N=N2)cc1 [(R)-9]
ED50 ([2]; mice, ip, time (h) in brackets, Table 2, footnotes not given): 15.1 mg/kg

COC[C@@H](NC(C)=O)C(=O)NCc1ccc(/C=C/c2cccc(F)c2)cc1 [(R)-14, (2-R,E)-N-4-(3-Fluorostyryl)benzyl 2-Acetamido-3-methoxypropionamide]
6 Hz, ED50 (6 Hz seizures; mice, ip, Table b607): <30 [0.25] milligrams per kilogram | Tox, TD50 (behavioral toxicity; [6]): >30 [0.25, 4.0] milligrams per kilogram | ED50 ([1]; read-out: MES, ED50, rat, po): ~30 mg/kg

C#CCOC[C@@H](NC(C)=O)C(=O)NCc1ccccc1 [(R)-7, (R)—N-Benzyl-2-acetamido-3-(prop-2-ynyloxy)propanamide]
melting point: 149 °C

COC[C@H](NC(C)=O)C(=O)NCc1ccc(N=[N+]=[N-])cc1 [(S)-5, (S)—N-(4-Azidobenzyl)-2-acetamido-3-methoxypropanamide, reference compound]
Tox, TD50 (behavioral toxicity; time (h) in brackets, Table 2): > 30 mg/kg

CC(=O)NC(C(=O)NCc1ccccc1)c1ccccc1 (racemic) [(R,S)-6, reference compound]
MES, ED50 [2, 10]: 32 mg/kg

COC[C@@H](NC(C)=O)C(=O)NCc1ccc(N=[N+]=[N-])cc1 [(R)-5, (R)—N-(4-Azidobenzyl)-2-acetamido-3-methoxypropanamide, reference compound]
Tox, TD50 (behavioral toxicity; time (h) in brackets, Table 2): > 250 mg/kg

COC[C@@H](NC(C)=O)C(=O)NCc1ccc(OCc2ccccc2F)cc1 [(R)-21, (R)—N-4-(2-Fluorobenzyloxy)benzyl 2-Acetamido-3-methoxypropionamide]
Tox, TD50 (behavioral toxicity; [7]): >500 milligrams per kilogram | MES, ED50 [2, 8]: 6.7 [0.25] (4.8-9.1) milligrams per kilogram | Tox, TD50 ([3]; rotorod test, Table b608): 37 [0.5] (29-48) milligrams per kilogram

C#CCOC[C@@H](NC(C)=O)C(=O)NCc1ccc(N=[N+]=[N-])cc1 [(R)-8, (R)—N-(4-Azidobenzyl)-2-acetamido-3-(prop-2-ynyloxy)propanamide]
melting point: 135 to 136 °C

CCOCC(NC(C)=O)C(=O)NCc1ccccc1 (racemic) [(R,S)-10, reference compound]
MES, ED50 ([2]; mice, ip): 17 mg/kg

C#CCOCC(NC(C)=O)C(=O)NCc1ccccc1 (stereo not drawn) [compound 7]
seizure activity in the 6 Hz seizure model assay (6 Hz seizures): excellent seizure activity

COC[C@H](NC(C)=O)C(=O)NCc1ccccc1 [(S)—B, reference compound]
Tox, TD50 ([3]; time (h) in brackets, Table 2): >300 [0.5]

COC[C@@H](NC(C)=O)C(=O)NCc1ccc(OCc2ccc(F)cc2)cc1 [(R)-22, (R)—N-4-(4-Fluorobenzyloxy)benzyl 2-Acetamido-3-methoxypropionamide]
Tox, TD50 (behavioral toxicity; [7]): >500 milligrams per kilogram
